One data set concerns P388 tumour cells. Nature of the data set: P388 in vivo, life span extension. Also on record: species or system mice (F1 hybrid, DBA-2 male x C57 B1 female); key to P388 in vivo Active: Y: implies a significant value of drug activity at the stated dose; N: implies no or not statistically significant activity. Conditions: for P388 in vivo ILS (percentage increase in life span): at optimal dose, days 1, 5 and 9, vs controls (average survival 11 days), greater than 20% statistically significant; for P388 in vivo Active: at the stated (optimal) dose. On the procedure:
P388 in vivo--Tumour P388 cells were obtained as frozen stocks from Mason Research Inc., U.S.A. and passaged intraperitoneally according to standard methods (Cancer Chemother. Rep. 3, Part 3, page 9, 1972) in DBA-2 mice of either sex. Groups of six Fl hybrid mice (DBA-2 male x C57 B1 female, g weight 20±1 g) were injected intraperitoneally with 10^6 cells on day 0.
O.D.--optimal drug dose, in milligrams per kilogram, administered as a solution in 0.1 ml of 30% v/v ethyl alcohol in water on days 1, 5 and 9 after tumour inoculation. The drug is administered as a soluble acid addition salt.
ILS--percentage increase in life span of treated animals over that of groups of control animals injected with tumour alone. The average survival of control mice was 11 days. Values of ILS greater than 20% are considered statistically significant.
Y. implies a significant value of drug activity at the stated dose.
N. implies no or not statistically significant activity.

The test system of data set [1] is murine L1210 leukaemic cells. Nature of the data set: L1210 in vitro growth inhibition. Format: cell-based. As to conditions: Mus musculus, drug added to cultures over 70 hours, 50% reduction of counted leukaemia cells, below 1000 nM considered significant, read-out: L1210 in vitro ID50. As for the experimental part: L1210 in vitro--The culture methods used are described in detail elsewhere (B. C. Baguley and R. Nash, Europ. J. Cancer, 17, 671-679 (1981)). Acceptable reproducibility of data depends critically upon the maintenance of optimal culture conditions. L1210 cells were initially obtained from Dr I. Wodinsky, Arthur D. Little Inc., Boston, U.S.A., under the auspices of the National Cancer Institute.
Values below 1000 nM are considered significant.

Data set [2] in a line: Reversed phase partition chromatography (lipophilic-hydrophilic balance). Conditions: linearly related to partition coefficients in 1-octanol/water, read-out: Rm. Format: physicochemical. The source says: Rm=a measure of the compound's lipophilic-hydrophilic balance from reversed phase partition chromatography. Rm is linearly related to partition coefficients obtained in the 1-octanol/water system.

For the next data set, the system named is Aerobacter aerogenes. The data set is described as follows: Antibacterial activity.
A further data set relates to Xanthomonas phaseoli. Nature of the data set: Antibacterial activity.
Data set [3] concerns Micrococcus lysodeikticus. Nature of the data set: Antibacterial activity.
In another data set the test system is Staphylococcus aureus. Nature of the data set: Antibacterial activity.
The subject of the next data set is Alcaligenes viscolatis. Nature of the data set: Antibacterial activity.
A further data set deals with Neisseria catarrhalis. Nature of the data set: Antibacterial activity.
The next data set concerns Streptococcus faecalis. Nature of the data set: Antibacterial activity.
Another data set has as its system Escherichia coli. The data set is described as follows: Antibacterial activity.
A further data set deals with Bacillus subtilis. Nature of the data set: Antibacterial activity.
The next data set relates to Sarcina lutea. The data set is described as follows: Antibacterial activity.
For data set [4] the following is noted: cited from earlier work.

Take `CN(C)CCNC(=O)c1cccc2cc3ccccc3nc12` [Compound 1]: in the data set with P388 tumour cells, the “P388 in vivo ILS (percentage increase in life span)” value was 91% and the “P388 in vivo Active” value is listed as “Y”. In data set [1], the IC50 was determined as 105 nM. Also, the chromatographic logP in [2] is -0.2.

With `Cc1c2ccccc2nc2c(C(=O)NCCN(C)C)cccc12` [Compound 2, N-(2-dimethylaminoethyl)-9-methylacridine-4-carboxamide], in the data set on P388 tumour cells, the “P388 in vivo ILS (percentage increase in life span)” value is 14% and the “P388 in vivo Active” value was “N”. Besides, in data set [1], the IC50 is 66 nM. The chromatographic logP in data set [2] was -0.3.

Turning to `CNc1c2ccccc2nc2c(C(=O)NCCN(C)C)cccc12` [Compound 3], in the data set with P388 tumour cells, the “P388 in vivo ILS (percentage increase in life span)” value was 53% and the “P388 in vivo Active” value is “Y”. Also, the IC50 in [1] came to 15 nM. Also, the chromatographic logP in [2] was -1.11.

As to `CN(C)CCNC(=O)c1cccc2c(N)c3ccccc3nc12` [Compound 4], the Antibacterial activity entry (in the data set on Aerobacter aerogenes; in the data set on Xanthomonas phaseoli; in data set [3]; in the data set on Staphylococcus aureus; in the data set on Alcaligenes viscolatis; in the data set on Neisseria catarrhalis) was “active” throughout. For the same compound, the Antibacterial activity result in the data set on Streptococcus faecalis, with Escherichia coli, in the data set on Bacillus subtilis and in the data set on Sarcina lutea was “active” in each case. The “P388 in vivo ILS (percentage increase in life span)” value in the data set on P388 tumour cells worked out at 98%. In addition, the “P388 in vivo Active” value with P388 tumour cells is on record as “Y”. In data set [2], the chromatographic logP is -1.11.

With `CN(C)CCCNC(=O)c1cccc2c(N)c3ccccc3nc12` [Compound 5], in the data set with P388 tumour cells, the “P388 in vivo ILS (percentage increase in life span)” value was 0% and the “P388 in vivo Active” value was “N”. Further, in data set [1], the IC50 is 157 nM. For the same compound, the chromatographic logP in [2] is -0.93.

Take `Nc1c2ccccc2nc2c(C(=O)NCCNCCO)cccc12` [Compound 6]: in the data set with P388 tumour cells, the “P388 in vivo ILS (percentage increase in life span)” value is on record as 80% and the “P388 in vivo Active” value was “Y”. The IC50 in data set [1] amounted to 77 nM. In addition, the chromatographic logP in data set [2] is -1.06.

`CCN(CC)CCNC(=O)c1cccc2c(N)c3ccccc3nc12` [Compound 7]: in the data set on P388 tumour cells, the “P388 in vivo ILS (percentage increase in life span)” value is 70% and the “P388 in vivo Active” value is given as “Y”. The IC50 in data set [1] turned out to be 5.5 nM. The chromatographic logP in data set [2] was -0.67.

Take `NCCNC(=O)c1cccc2c(N)c3ccccc3nc12` [Compound 8]: in the data set with P388 tumour cells, the “P388 in vivo ILS (percentage increase in life span)” value came out at 71% and the “P388 in vivo Active” value was “Y”. In addition, the IC50 in data set [1] stood at 414 nM. In addition, the chromatographic logP in [2] is -1.18.

Turning to `CN(C)CCNC(=O)c1cc([N+](=O)[O-])cc2c(N)c3ccccc3nc12` [Compound 9], in the data set on P388 tumour cells, the “P388 in vivo ILS (percentage increase in life span)” value was 25% and the “P388 in vivo Active” value is recorded as “Y”. Further, the IC50 in data set [1] is 319 nM.

On to `CN(C)CCNC(=O)c1cc(N)cc2c(N)c3ccccc3nc12` [Compound 10], for which, in the data set on P388 tumour cells, the “P388 in vivo ILS (percentage increase in life span)” value was found to be 28% and the “P388 in vivo Active” value is given as “Y”. For the same compound, the IC50 in [1] amounted to 162 nM.

Turning to `CN(C)CCNC(=O)c1cccc2c(N)c3cccc([N+](=O)[O-])c3nc12` [Compound 11], in the data set with P388 tumour cells, the “P388 in vivo ILS (percentage increase in life span)” value was 39% and the “P388 in vivo Active” value is reported as “Y”. For the same compound, the IC50 in data set [1] was 1.3 nM.

As to `CN(C)CCNC(=O)c1cccc2c(N)c3cccc(N)c3nc12` [Compound 12], in the data set with P388 tumour cells, the “P388 in vivo ILS (percentage increase in life span)” value came out at 58% and the “P388 in vivo Active” value was “Y”. Further, the IC50 in data set [1] turned out to be 18 nM.

For `Cc1cccc2c(N)c3cccc(C(=O)NCCN(C)C)c3nc12` [Compound 13], in the data set on P388 tumour cells, the “P388 in vivo ILS (percentage increase in life span)” value came out at 107% and the “P388 in vivo Active” value was “Y”. Further, the IC50 in data set [1] came out at 0.33 nM. Moreover, the chromatographic logP in data set [2] was -1.02.

`COc1cccc2c(N)c3cccc(C(=O)NCCN(C)C)c3nc12` [Compound 14]: in the data set on P388 tumour cells, the “P388 in vivo ILS (percentage increase in life span)” value was determined as 81% and the “P388 in vivo Active” value is on record as “Y”. For the same compound, the IC50 in [1] was determined as 4.3 nM. Besides, in [2], the chromatographic logP is -1.06.

For `CN(C)CCNC(=O)c1cccc2c(N)c3cccc(Cl)c3nc12` [Compound 15], in the data set on P388 tumour cells, the “P388 in vivo ILS (percentage increase in life span)” value worked out at 81% and the “P388 in vivo Active” value is on record as “Y”. The IC50 in data set [1] came out at 2.9 nM.

As to `CN(C)CCNC(=O)c1cccc2c(N)c3ccc([N+](=O)[O-])cc3nc12` [Compound 16], in the data set with P388 tumour cells, the “P388 in vivo ILS (percentage increase in life span)” value is listed as 23% and the “P388 in vivo Active” value is reported as “Y”. Moreover, the IC50 in data set [1] worked out at 0.05 nM.

Turning to `CN(C)CCNC(=O)c1cccc2c(N)c3ccc(N)cc3nc12` [Compound 17], in the data set on P388 tumour cells, the “P388 in vivo ILS (percentage increase in life span)” value is reported as 58% and the “P388 in vivo Active” value is “Y”. Besides, the IC50 in data set [1] was determined as 35 nM.

For `Cc1ccc2c(N)c3cccc(C(=O)NCCN(C)C)c3nc2c1` [Compound 18], in the data set on P388 tumour cells, the “P388 in vivo ILS (percentage increase in life span)” value was 20% and the “P388 in vivo Active” value is “N”. Moreover, the IC50 in [1] worked out at 55 nM. Besides, the chromatographic logP in data set [2] was -0.82.

As to `COc1ccc2c(N)c3cccc(C(=O)NCCN(C)C)c3nc2c1` [Compound 19], in the data set on P388 tumour cells, the “P388 in vivo ILS (percentage increase in life span)” value is recorded as 17% and the “P388 in vivo Active” value is recorded as “N”. The IC50 in data set [1] was determined as 151 nM.

`CN(C)CCNC(=O)c1cccc2c(N)c3cc([N+](=O)[O-])ccc3nc12.Cl.Cl` [Compound 20, N-(2-dimethylaminoethyl)-9-amino-7-nitroacridine-4-carboxamide dihydrochloride]: in the data set on P388 tumour cells, the “P388 in vivo ILS (percentage increase in life span)” value came to 34% and the “P388 in vivo Active” value is “Y”. Moreover, in [1], the IC50 was 104 nM. In addition, in data set [2], the chromatographic logP is -1.29.

For the compound `CN(C)CCNC(=O)c1cccc2c(N)c3cc(N)ccc3nc12` [Compound 21], in the data set on P388 tumour cells, the “P388 in vivo ILS (percentage increase in life span)” value amounted to 80% and the “P388 in vivo Active” value is “Y”. Besides, the IC50 in data set [1] came to 48 nM. Further, the chromatographic logP in data set [2] was -1.64.

Turning to `Cc1ccc2nc3c(C(=O)NCCN(C)C)cccc3c(N)c2c1` [Compound 22], in the data set on P388 tumour cells, the “P388 in vivo ILS (percentage increase in life span)” value is 0% and the “P388 in vivo Active” value is “N”. Besides, the IC50 in [1] was determined as 605 nM.

On to `COc1ccc2nc3c(C(=O)NCCN(C)C)cccc3c(N)c2c1` [Compound 23], for which, in the data set on P388 tumour cells, the “P388 in vivo ILS (percentage increase in life span)” value stood at 4% and the “P388 in vivo Active” value is listed as “N”. Further, the IC50 in data set [1] was found to be 518 nM.

On to `CN(C)CCNC(=O)c1cccc2c(N)c3cc(Cl)ccc3nc12` [Compound 24], for which, in the data set with P388 tumour cells, the “P388 in vivo ILS (percentage increase in life span)” value is reported as 8% and the “P388 in vivo Active” value was “N”. In addition, the IC50 in [1] came to 722 nM.

Regarding `CCN(CC)CCCC(C)Nc1c2ccc(Cl)cc2nc2ccc(OC)cc12` (centres unmarked) [mepacrine], in data set [4], the “Local clinical cytostatic effects” value was “Local clinical cytostatic effects”.

These data come from patent US4590277A, “Acridinecarboxamide compounds” (Development Finance Corporation of New Zealand, priority 1982, dated 1986).
